Assay results published in ChEMBL document CHEMBL5505964, “HDAC/NAMPT dual inhibitors overcome initial drug-resistance in p53-null leukemia cells” (Eur J Med Chem, 2024).

Legend:
Histone deacetylase 4 = Histone deacetylase 4 (Homo sapiens, UniProt P56524); assay: Inhibition of C-terminal His-tagged/N-terminal GST-tagged human HDAC4 (627 to 1084 residues) expressed in baculovirus-infected Sf9 cells using Boc-Lys-(trifluoroacetyl)-AMC as substrate preincubated with enzyme for 1 hr followed by substrate addition and measured after 2 hrs by fluorescence analysis
Sequence of Histone deacetylase 4 (P56524 whole entry, the tested form may be a part): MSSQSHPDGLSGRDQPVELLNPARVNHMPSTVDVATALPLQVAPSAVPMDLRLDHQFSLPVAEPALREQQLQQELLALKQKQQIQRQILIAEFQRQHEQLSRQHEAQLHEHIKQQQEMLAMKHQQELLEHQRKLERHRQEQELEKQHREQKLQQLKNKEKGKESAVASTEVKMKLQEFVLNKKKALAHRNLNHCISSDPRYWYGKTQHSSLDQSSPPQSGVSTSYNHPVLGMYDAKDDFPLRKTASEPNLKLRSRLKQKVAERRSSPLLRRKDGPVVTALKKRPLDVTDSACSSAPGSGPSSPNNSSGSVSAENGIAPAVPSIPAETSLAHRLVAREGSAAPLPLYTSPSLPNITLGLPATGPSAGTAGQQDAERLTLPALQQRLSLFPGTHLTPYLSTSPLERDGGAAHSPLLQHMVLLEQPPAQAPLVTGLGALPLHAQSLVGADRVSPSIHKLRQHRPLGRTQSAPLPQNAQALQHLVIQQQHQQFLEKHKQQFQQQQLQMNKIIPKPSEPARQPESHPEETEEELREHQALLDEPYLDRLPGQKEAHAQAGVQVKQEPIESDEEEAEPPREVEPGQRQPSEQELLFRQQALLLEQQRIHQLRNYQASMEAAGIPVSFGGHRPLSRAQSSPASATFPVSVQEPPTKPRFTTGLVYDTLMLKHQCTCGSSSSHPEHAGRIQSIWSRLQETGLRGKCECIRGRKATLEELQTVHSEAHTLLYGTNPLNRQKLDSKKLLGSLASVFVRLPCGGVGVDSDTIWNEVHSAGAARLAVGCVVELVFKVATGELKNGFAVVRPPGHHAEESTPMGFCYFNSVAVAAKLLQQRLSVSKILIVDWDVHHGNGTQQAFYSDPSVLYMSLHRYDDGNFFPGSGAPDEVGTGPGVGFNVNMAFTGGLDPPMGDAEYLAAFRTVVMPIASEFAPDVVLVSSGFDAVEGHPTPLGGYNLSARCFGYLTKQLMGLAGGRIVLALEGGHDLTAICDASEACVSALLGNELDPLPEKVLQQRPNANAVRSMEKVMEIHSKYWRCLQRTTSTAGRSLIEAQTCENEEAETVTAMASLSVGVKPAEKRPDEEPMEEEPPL

Histone deacetylase 5 = Histone deacetylase 5 (Homo sapiens, UniProt Q9UQL6); assay: Inhibition of C-terminal His-tagged human HDAC5 catalytic domain (656 to 1122 residues) expressed in baculovirus-infected Sf9 cells using Boc-Lys-(trifluoroacetyl)-AMC as substrate preincubated with enzyme for 1 hr followed by substrate addition and measured after 2 hrs by fluorescence analysis
Sequence of Histone deacetylase 5 (Q9UQL6 whole entry, the tested form may be a part): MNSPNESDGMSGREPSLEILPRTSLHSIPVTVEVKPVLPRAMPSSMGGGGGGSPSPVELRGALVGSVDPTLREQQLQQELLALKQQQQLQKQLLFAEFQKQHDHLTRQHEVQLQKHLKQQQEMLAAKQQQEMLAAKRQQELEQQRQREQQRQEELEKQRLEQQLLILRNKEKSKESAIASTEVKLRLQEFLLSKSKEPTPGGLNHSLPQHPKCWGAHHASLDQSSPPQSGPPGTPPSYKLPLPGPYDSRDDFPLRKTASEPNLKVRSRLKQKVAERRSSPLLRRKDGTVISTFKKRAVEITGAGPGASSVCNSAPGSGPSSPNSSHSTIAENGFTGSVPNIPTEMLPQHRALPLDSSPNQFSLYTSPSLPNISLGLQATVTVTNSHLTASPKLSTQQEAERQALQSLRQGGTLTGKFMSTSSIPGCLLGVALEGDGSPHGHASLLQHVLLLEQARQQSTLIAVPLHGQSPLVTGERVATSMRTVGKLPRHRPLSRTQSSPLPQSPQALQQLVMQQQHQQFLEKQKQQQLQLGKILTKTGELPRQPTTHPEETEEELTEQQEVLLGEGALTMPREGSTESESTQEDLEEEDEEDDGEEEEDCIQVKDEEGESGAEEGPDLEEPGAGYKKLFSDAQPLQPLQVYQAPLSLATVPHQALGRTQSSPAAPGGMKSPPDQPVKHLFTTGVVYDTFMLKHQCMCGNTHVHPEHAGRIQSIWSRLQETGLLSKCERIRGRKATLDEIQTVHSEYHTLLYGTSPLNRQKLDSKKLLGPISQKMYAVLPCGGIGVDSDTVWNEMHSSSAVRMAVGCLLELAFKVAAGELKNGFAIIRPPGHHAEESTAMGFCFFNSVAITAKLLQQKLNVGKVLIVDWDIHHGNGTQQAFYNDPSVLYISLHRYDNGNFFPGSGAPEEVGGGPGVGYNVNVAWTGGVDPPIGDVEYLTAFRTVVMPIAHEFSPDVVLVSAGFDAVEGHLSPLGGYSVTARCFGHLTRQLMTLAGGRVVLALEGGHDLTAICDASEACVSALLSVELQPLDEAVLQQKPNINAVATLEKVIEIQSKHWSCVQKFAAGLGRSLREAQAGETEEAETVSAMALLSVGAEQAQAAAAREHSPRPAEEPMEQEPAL

[1] = target: T1, Protein deacetylase HDAC6 (Homo sapiens, UniProt Q9UBN7); assay: Inhibition of N-terminal GST-tagged human full length recombinant HDAC6 (1 to 1215 residues) expressed in baculovirus-infected Sf9 cells using Boc-Lys-(acetyl)-AMC as substrate preincubated with enzyme for 1 hr followed by substrate addition and measured after 2 hrs by fluorescence analysis
T1 sequence (Q9UBN7 whole entry): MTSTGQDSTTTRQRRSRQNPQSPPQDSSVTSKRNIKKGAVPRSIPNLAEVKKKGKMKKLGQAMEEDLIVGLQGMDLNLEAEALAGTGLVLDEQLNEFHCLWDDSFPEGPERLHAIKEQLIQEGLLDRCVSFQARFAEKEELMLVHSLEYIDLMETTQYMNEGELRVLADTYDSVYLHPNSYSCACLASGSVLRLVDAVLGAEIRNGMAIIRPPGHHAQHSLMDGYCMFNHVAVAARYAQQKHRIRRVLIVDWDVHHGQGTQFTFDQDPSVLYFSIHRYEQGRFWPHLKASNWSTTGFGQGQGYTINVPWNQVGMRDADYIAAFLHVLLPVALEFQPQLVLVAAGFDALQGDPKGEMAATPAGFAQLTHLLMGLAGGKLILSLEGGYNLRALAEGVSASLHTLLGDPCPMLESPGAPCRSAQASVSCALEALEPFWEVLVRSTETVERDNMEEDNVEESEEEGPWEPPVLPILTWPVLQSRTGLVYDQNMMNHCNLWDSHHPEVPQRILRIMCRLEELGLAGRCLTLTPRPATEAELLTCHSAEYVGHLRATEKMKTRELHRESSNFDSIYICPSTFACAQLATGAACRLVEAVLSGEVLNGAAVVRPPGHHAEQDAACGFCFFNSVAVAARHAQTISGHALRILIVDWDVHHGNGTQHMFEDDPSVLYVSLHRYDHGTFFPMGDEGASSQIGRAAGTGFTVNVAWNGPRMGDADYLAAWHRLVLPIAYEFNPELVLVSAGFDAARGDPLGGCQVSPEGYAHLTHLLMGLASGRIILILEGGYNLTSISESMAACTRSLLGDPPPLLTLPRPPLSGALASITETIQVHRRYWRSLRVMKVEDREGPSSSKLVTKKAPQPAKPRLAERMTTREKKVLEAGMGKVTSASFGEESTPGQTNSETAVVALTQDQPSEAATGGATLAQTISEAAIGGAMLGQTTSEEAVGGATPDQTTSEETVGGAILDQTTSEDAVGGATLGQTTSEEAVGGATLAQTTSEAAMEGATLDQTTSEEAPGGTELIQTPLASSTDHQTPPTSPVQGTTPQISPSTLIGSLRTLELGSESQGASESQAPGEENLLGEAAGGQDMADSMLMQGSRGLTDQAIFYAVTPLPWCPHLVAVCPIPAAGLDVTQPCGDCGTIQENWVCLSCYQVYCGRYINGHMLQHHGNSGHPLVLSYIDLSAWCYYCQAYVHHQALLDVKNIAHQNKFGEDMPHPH

Histone deacetylase 9 = Histone deacetylase 9 (Homo sapiens, UniProt Q9UKV0); assay: Inhibition of C-terminal His-tagged human recombinant HDAC9 (604 to 1066 residues) expressed in baculovirus-infected Sf9 cells using Boc-Lys-(trifluoroacetyl)-AMC as substrate preincubated with enzyme for 1 hr followed by substrate addition and measured after 2 hrs by fluorescence analysis
Sequence of Histone deacetylase 9 (Q9UKV0 whole entry, the tested form may be a part): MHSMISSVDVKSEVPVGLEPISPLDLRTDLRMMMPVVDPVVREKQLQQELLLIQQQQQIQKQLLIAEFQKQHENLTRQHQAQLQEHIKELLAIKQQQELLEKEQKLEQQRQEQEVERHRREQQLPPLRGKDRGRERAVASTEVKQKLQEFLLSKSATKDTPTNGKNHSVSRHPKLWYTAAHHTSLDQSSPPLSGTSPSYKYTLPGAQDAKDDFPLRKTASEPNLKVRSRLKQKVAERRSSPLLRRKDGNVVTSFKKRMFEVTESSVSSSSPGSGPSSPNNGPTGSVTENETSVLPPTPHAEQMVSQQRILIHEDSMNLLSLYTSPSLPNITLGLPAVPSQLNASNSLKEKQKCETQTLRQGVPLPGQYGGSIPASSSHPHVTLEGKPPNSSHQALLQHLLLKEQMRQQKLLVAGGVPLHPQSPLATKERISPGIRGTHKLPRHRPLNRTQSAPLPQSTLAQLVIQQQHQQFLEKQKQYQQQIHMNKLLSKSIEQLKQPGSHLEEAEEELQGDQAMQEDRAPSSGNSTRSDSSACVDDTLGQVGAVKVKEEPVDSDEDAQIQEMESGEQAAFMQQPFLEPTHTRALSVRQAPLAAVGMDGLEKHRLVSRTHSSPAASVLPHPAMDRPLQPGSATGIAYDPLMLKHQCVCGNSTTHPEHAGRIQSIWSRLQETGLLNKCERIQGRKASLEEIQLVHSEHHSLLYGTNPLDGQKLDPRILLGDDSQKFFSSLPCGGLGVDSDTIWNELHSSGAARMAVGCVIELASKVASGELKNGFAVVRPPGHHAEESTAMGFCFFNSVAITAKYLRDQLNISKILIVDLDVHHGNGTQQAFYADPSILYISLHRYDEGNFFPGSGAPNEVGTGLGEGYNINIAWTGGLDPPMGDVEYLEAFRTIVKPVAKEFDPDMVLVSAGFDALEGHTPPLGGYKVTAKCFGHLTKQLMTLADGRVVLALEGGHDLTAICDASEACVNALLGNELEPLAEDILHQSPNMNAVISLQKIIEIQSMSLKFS

Histone deacetylase 11 = target: T2, Histone deacetylase 11 (Homo sapiens, UniProt Q96DB2); assay: Inhibition of full length human recombinant HDAC11 (1 to 347 residues) expressed in baculovirus-infected Sf9 cells using Boc-Lys-(trifluoroacetyl)-AMC as substrate preincubated with enzyme for 1 hr followed by substrate addition and measured after 2 hrs by fluorescence analysis
T2 sequence (Q96DB2 whole entry): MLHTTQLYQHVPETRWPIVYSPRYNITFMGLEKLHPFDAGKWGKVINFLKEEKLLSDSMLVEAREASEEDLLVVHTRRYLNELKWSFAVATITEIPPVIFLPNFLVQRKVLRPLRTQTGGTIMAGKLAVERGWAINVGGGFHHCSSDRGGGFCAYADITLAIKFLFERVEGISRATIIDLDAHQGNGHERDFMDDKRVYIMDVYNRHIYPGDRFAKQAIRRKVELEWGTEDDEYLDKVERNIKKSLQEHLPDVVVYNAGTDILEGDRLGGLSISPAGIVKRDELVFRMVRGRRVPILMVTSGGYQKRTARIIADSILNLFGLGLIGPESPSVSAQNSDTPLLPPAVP

MV4-11 = assay: Antiproliferative activity against human MV4-11 cells harboring wild type p53 assessed as induction of cell death incubated for 48 hrs by resazurin dye based fluorescence analysis; format: functional; conditions: read-out: LD50 (the source's name)
HL-60 [2] = assay: Antiproliferative activity against p53-null human HL-60 cells assessed as inhibition of cell growth incubated for 48 hrs by resazurin dye based fluorescence analysis; format: functional
HL-60 [3] = assay: Antiproliferative activity against p53-null human HL-60 cells assessed as induction of cell death incubated for 48 hrs in presence of nicotinamide mononucleotide by resazurin dye based fluorescence analysis; format: functional; conditions: read-out: LD50 (the source's name)

Compound	IC50 (Histone deacetylase 4) [µM]	IC50 (Histone deacetylase 5) [µM]	IC50 [1] [µM]	IC50 (Histone deacetylase 9) [µM]	IC50 (Histone deacetylase 11) [µM]	CC50 (MV4-11) [µM]	GI50 (HL-60 [2]) [µM]	CC50 (HL-60 [3]) [µM]
CCCNNC(=O)c1ccc(CNC(=O)/C=C/c2cccnc2)cc1	> 10	> 10	> 10	> 10	> 10	0.218	0.0422	> 100
CCCNNC(=O)c1ccc(CNC(=O)c2cc3cnccc3[nH]2)cc1	> 10	> 10	> 10	> 10	> 10	0.0582	0.0512	> 100
